# Measurements taken from US9458507B1, “Antipsychotic treatment based on SNP genotype” (Vanda Pharmaceuticals, Inc., priority 2007, dated 2016).
# What was measured:
# [1] = target: 5-HT, receptor (Homo sapiens, UniProt P34969); details: cited from earlier work
# [2] = tested on: patients with diagnoses of schizophrenia; assay: randomized, double-blind, placebo- and ziprasidone-controlled, 28-day study of iloperidone with whole genome association study; change in PANSS-T by SNP genotype; format: in vivo, human; details: for mean of change in PANSS-T: iloperidone group, MMRM analysis; for Odds Ratio of Improvement ≧ 20% in PANSS-T: iloperidone-treated patients, LOCF data
# Procedure: The clinical trial evaluated the efficacy of iloperidone in treating patients with diagnosed schizophrenia.
# Patients 18 to 65 years of age with diagnoses of schizophrenia according to the Diagnostic and Statistical Manual of Mental Disorders, 4th Edition were eligible to participate in a randomized, double-blind, placebo- and ziprasidone-controlled, 28-day study of the efficacy and safety of iloperidone. Patients were randomly assigned to iloperidone 12 mg twice a day, ziprasidone 80 mg twice a day (active control), or placebo. The primary efficacy variable was change from baseline to the last scheduled observation in Positive and Negative Syndrome Scale total score (PANSS-T) using the data from the short-term, double-blind phase. A secondary objective was to identify genetic markers predictive of response to iloperidone.
# Blood samples were collected, and DNA was extracted from 432 of 457 patients who consented to the optional WGAS, including 218 patients administered iloperidone and 102 administered placebo.
# To independently discover and confirm biomarkers of iloperidone efficacy, patients administered iloperidone were randomly separated and genotyped for the WGAS into two groups (Group 1 (discovery phase) and Group 2 (confirmatory phase)) of equal size. PROC SURVEYSELECT (SAS Institute, Cary, N.C.) was used to stratify the groups to have approximately equal numbers of patients of each race and each sex.
# In Group 1, each SNP was tested for potential association between genotype and change in PANSS-T for patients in the low 30% and the high 30% extremes of the distribution of Day 28 last-observation-carried-forward (LOCF) data. Analysis was performed using a truncated nonparametric measure analysis of variance (ANOVA), based on the Kruskal-Wallis test, with genotypes as the grouping variables. Based on a significant omnibus test and ad hoc contrasts, the results that produced the most parsimonious genetic model (e.g., homozygous for one allele vs. all other genotypes (e.g., AA vs. AB and BB), heterozygous vs. homozygous genotypes (AB vs. AA and BB)) dictated the genetic model that was tested in the confirmatory phase. For ease of global description, given that each SNP might have a different parsimonious model, the genotypes of all SNPs associated with positive iloperidone response were referred to as genotype class C1, and the remaining genotypes for that SNP were referred to as genotype class C2. If no parsimonious genetic model was obtained for a SNP, it was not tested further. Only the subset of 100 SNPs with the lowest P values for the contrasts that defined C1 and C2 was tested in the confirmatory phase.
# Two separate methods were applied. LOCF data for PANSS-T at Day 28 were used in a one-way ANOVA of each SNP, testing each genotype class against the class of the other two genotypes combined. Results from the ANOVA dictated the parsimonious genetic model to be used for additional testing. Mixed Model Repeated Measures (MMRM) analysis was subsequently conducted using the parsimonious genetic model of each SNP in the MMRM model, as used for the analysis of the clinical trial results. In the MMRM analysis, only the best genetic model of each SNP, as determined in the ANOVA LOCF data analysis, was used.
# Three analyses were performed. Analysis 1 was a two-phase approach in which DNA samples were separated into two groups. The first group consisted of 50% of the samples for a discovery phase in which only the top 30% and the bottom 30% of the change in PANSS-T (LOCF data) were used, and the second was a hold-out group consisting of the other 50% for a confirmatory phase. Only the 100 SNPs with the lowest P values in the discovery phase were subsequently tested.
# Analysis 2 was an ANOVA of LOCF data for all iloperidone-treated patients in a single-phase approach.
# Analysis 3 was an MMRM analysis of all patients using the most parsimonious genetic model of each SNP. […]
# Chain of 5-HT, receptor (P34969 whole entry): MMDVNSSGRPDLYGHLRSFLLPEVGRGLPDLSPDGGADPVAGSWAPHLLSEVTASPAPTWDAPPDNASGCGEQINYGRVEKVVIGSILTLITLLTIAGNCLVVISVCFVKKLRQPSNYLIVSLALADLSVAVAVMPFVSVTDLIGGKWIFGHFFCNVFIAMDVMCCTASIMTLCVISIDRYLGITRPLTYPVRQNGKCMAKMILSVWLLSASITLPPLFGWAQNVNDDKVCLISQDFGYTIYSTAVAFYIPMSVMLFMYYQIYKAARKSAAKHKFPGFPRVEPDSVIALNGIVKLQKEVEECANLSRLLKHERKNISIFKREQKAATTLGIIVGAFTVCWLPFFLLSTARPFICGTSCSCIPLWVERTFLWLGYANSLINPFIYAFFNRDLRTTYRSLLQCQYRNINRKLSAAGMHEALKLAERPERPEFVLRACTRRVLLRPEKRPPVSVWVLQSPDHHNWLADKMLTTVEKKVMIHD
smiles,measurement,setting,value
"COc1cc(C(C)=O)ccc1OCCCN1CCC(c2noc3cc(F)ccc23)CC1 [iloperidone, 1-[4-[3-[4-(6-flouro-1,2-benzisoxazol-3-yl)-1-piperidinyl]propoxy]-3-methoxyphenyl] ethanone]","affinity for the 5-HT, receptor",[1],high affinity
same,mean of change in PANSS-T,"[2]; rs875326 (TNR) genotype non-AG (homozygotes, highest response class)",−16.39 (±4.35)
same,Odds Ratio of Improvement ≧ 20% in PANSS-T,[2]; rs875326 (TNR) non-AG vs AG,3.57
same,Odds Ratio of Improvement ≧ 20% in PANSS-T,[2]; rs2513265 (GRIA4) non-TT vs TT,2.43
same,Odds Ratio of Improvement ≧ 20% in PANSS-T,[2]; rs4528226 (NUDT9P1) GT vs non-GT,3.00
same,mean of change in PANSS-T,[2]; rs4528226 (NUDT9P1) genotype GT (highest response class),−18.73 (±3.99)
same,Odds Ratio of Improvement ≧ 20% in PANSS-T,[2]; rs7837682 (GRFA2) AA vs non-AA,2.95
same,mean of change in PANSS-T,[2]; rs7837682 (GRFA2) genotype AA (highest response class),−15.95 (±4.23)
same,Odds Ratio of Improvement ≧ 20% in PANSS-T,[2]; rs9643483 (XKR4) non-GG vs GG,3.42
same,Odds Ratio of Improvement ≧ 20% in PANSS-T,[2]; rs11851892 (NPAS3) non-GG vs GG,2.74
same,improvement in PANSS-T greater than the mean response of all iloperidone-treated patients,[2]; rs11851892 non-GG genotype vs all iloperidone-treated patients,68%
